In PubChem BioAssay (NCI) one finds TGI data, which are given here for seven compounds.

Each structure is given as a SMILES string.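 Values below derive from 48-hour exposures of cells grown in 96-well plates, with endpoints linearly interpolated between the two concentrations bracketing the appropriate inhibition level. TGI marks complete inhibition of growth.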 Some results are limits rather than exact numbers.

Holding throughout (experiment): growth of human tumour cells (NCI), 48 h
In assay [1] the test system is HT29 colon.
The test system of assay [2] is SK-MEL-5 melanoma.
The subject of assay [3] is MDA-MB-435.
The subject of assay [4] is NCI-H522 lung.
Assay [5] concerns NCI-H23 lung.
The subject of assay [6] is HOP-92 NSCLC.
The subject of assay [7] is COLO 205 colon.
Assay [8] deals with SF-268 CNS.
The subject of assay [9] is ACHN renal.
The test system of assay [10] is TK-10 renal.
Assay [11] has as its system PC-3 prostate.
In assay [12] the test system is SK-MEL-28 melanoma.
The test system of assay [13] is CAKI-1 renal.
For assay [14], the system named is MDA-N.
Assay [15] deals with MDA-MB-231 breast.
The test system of assay [16] is UACC-62 melanoma.
The subject of assay [17] is BT-549 breast.
Assay [18] concerns SW-620 colon.
Assay [19] has as its system K-562 leukemia.

Turning to `COc1ccc(C2CC(c3ccc4ccccc4c3O)=NN2C(C)=O)cc1OC` (stereo not drawn), the TGI in assay [1], in assay [2], in [3], in [4], in [5] and in assay [6] was more than 100 µM throughout. Further, the TGI in assay [7], in [8], in [9], in assay [10], in assay [11] and in [12] was more than 100 µM in each case. For the same compound, the TGI in assay [13], in assay [14], in assay [15], in assay [16], in assay [17] and in [18] was more than 100 µM in each case. In addition, in [19], the TGI was more than 100 µM.

Consider `CN1C(=O)[C@@H]2N(CSC2(C)C)C1=S`, for which the TGI in assay [1], in assay [2], in assay [3], in [4], in [5] and in [6] was more than 100 µM each time. In addition, the TGI in assay [7], in assay [8], in [9], in assay [10], in [11] and in [12] was more than 100 µM in each case. The TGI in assay [13], in [14], in assay [15], in [16], in assay [17] and in assay [18] was more than 100 µM in each case. Moreover, in assay [19], the TGI is more than 100 µM.

Regarding `COc1cc(Br)cc2nc(-c3cccs3)oc12`, the TGI in [1], in [2], in assay [3], in assay [4], in assay [5] and in [6] was more than 100 µM each time. For the same compound, the TGI was more than 100 µM in assay [7]; more than 100 µM in assay [8]; more than 100 µM in [9]; more than 77.6 µM in assay [10]; more than 100 µM in assay [11]; more than 100 µM in assay [12]. In addition, the TGI in assay [13], in assay [14], in assay [15], in assay [16], in [17] and in assay [18] was more than 100 µM in each case. In assay [19], this compound had a TGI of more than 100 µM.

As to `CC[C@H](C)C1=C(O)[N@+]2([O-])Oc3ccc(-c4c(O)c(O)c(-c5ccc(OC(C)=O)cc5)c(OC(C)=O)c4OC(C)=O)cc3O[C@]2([C@@H](C)CC)C(=O)N1O`, the TGI in [1] is more than 50 µM; in assay [2], more than 50 µM; in [3] it was more than 50 µM; in assay [4], 18 µM; in [5], more than 50 µM; in assay [6] it was 45.8 µM. Further, the TGI in assay [7], in assay [8], in assay [9], in assay [10], in assay [11] and in [12] was more than 50 µM each time. In addition, the TGI in [13] was more than 50 µM; in [14], more than 50 µM; in [15], more than 50 µM; in assay [16], more than 50 µM; in [17], more than 50 µM; in assay [18], 23.6 µM. Further, the TGI in [19] worked out at 31.5 µM.

Turning to `O=C(Nc1sccc1S(=O)(=O)c1ccc(Cl)cc1)C(F)(F)F`, the TGI was more than 100 µM in assay [1]; 38.8 µM in assay [2]; more than 100 µM in assay [3]; more than 100 µM in [4]; more than 100 µM in assay [5]; more than 100 µM in assay [6]. Further, the TGI is 31.8 µM in [7]; 83.6 µM in assay [8]; more than 100 µM in assay [9]; more than 100 µM in assay [10]; more than 100 µM in [11]; more than 100 µM in assay [12]. Besides, the TGI in [13] was 62.5 µM; in assay [14], 77.3 µM; in assay [15], 37.3 µM; in assay [16], more than 100 µM; in assay [17], more than 100 µM; in assay [18], more than 100 µM. Besides, the TGI in [19] amounted to 35.5 µM.

In the case of `COc1ccc([C@H]2C=C(c3cc(F)c(Cl)cc3Cl)NC(=S)N2)cc1`, the TGI is 80.5 µM in assay [1]; 27.2 µM in assay [2]; 56.4 µM in assay [3]; more than 100 µM in assay [4]; more than 100 µM in assay [5]; more than 100 µM in [6]. Further, the TGI in assay [7] was 48.6 µM; in assay [8], more than 100 µM; in assay [9] it was more than 100 µM; in assay [10], more than 100 µM; in [11], 65.7 µM; in assay [12], more than 100 µM. Also, the TGI was more than 100 µM in [13]; 33.2 µM in assay [14]; more than 100 µM in assay [15]; more than 100 µM in [16]; more than 100 µM in [17]; more than 100 µM in assay [18]. Further, in [19], the TGI was more than 100 µM.

Regarding `CO[C@@H]1C=C[C@@]23c4cc5c(cc4C(O)N(CC2O)C3C1)OCO5` (stereo partly drawn), the TGI in assay [1] is 26.2 µM; in assay [2], 6.01 µM; in assay [3], 18.2 µM; in assay [4], more than 100 µM; in assay [5], 56.1 µM; in [6], 13.6 µM. For the same compound, the TGI in assay [7] was 14.2 µM; in assay [8] it was more than 100 µM; in assay [9], 18.6 µM; in assay [10], 23 µM; in assay [11] it was 17.5 µM; in [12], more than 100 µM. The TGI was 27.2 µM in assay [13]; 26.1 µM in assay [14]; 21.8 µM in [15]; 20.4 µM in assay [16]; 20.5 µM in assay [17]; more than 100 µM in assay [18]. The compound also displayed a TGI in assay [19] of more than 100 µM.
